Reference: publication PMC6737244, “Cathelicidin Peptides Restrict Bacterial Growth via Membrane Perturbation and Induction of Reactive Oxygen Species” (mBio, 2019)
Ends that are not written are not given here.

Assays:
V. cholerae [1] = assay: Survival (CFU) with B22 with or without ROS scavengers or SodA
Method: The membrane-permeable iron chelating agent 2,2′-dipyridyl (DP) efficiently chelates free Fe^2+ and the scavenger thiourea (TU) directly quenches hydroxyl radicals generated by the Fenton reaction.
To inhibit Fenton chemistry in the cytoplasm, cells were pretreated with 75 μM concentration of the membrane-permeable agent 2,2′-dipyridyl (DP), which efficiently chelates free Fe^2+, and 150 μM concentration of the scavenger thiourea (TU), which directly quenches Fenton-generated hydroxyl radicals ([50]). These concentrations of DP and TU were confirmed not to affect bacterial growth.

V. cholerae [2] = assay: CellROX ROS production, single-cell imaging; type: cell-based, Vibrio cholerae; conditions: 100 nM, 2.5 μM CellROX
From the text: The assortment of E. coli genes that were differentially expressed after peptide treatment led us to suspect that B22a induced oxidative stress. Oxidative stress is often transient and challenging to detect due to a suite of enzymes in bacterial cells that can rapidly reduce oxidative species. We monitored the real-time accumulation of ROS in single cells of V. cholerae in the presence of CellROX, a cell-permeable redox dye that reacts with O2^– and ^·OH ([30]). CellROX is nonfluorescent in the reduced state, but upon oxidation, it binds double-stranded DNA and fluoresces strongly. Images were captured at 15-s intervals over 40 min, twice the doubling time of V. cholerae under these conditions. […] The number of fluorescent cells increased following treatment with 25, 50, or 100 nM B22 or B22a (Fig. S4), and a fluorescence burst due to the oxidation of CellROX was observed within 15 s of B22 treatment (Fig. 7A, bottom). The signal intensity peaked over the next 30 s and then dissipated after about 1 min. The loss in fluorescence intensity was followed by an abrupt shortening in cell length, a dramatic decrease in cell contrast, and bleb formation roughly 45 s later.

P. aeruginosa = assay: Growth of cultures (OD600) with sublethal peptide; conditions: 20 nM, 2 h, CAMHB
E. faecalis = assay: CellROX ROS production, imaging; type: cell-based, Enterococcus faecalis; conditions: 500 nM, 2.5 μM CellROX
From the text: The growth rate of the sodA mutant in the absence of peptide was lower than that of the wild type (WT), underscoring the importance of effectively controlling O2^− accumulation.

E. cloacae = assay: Single-cell division time, time-lapse phase-contrast microscopy; type: cell-based, Enterobacter cloacae; conditions: 30 nM, first three generations
Method: (§1) To confirm that sublethal levels of cathelicidins affected the growth of Gram-negative bacteria, the division of single cells of E. coli and E. cloacae was monitored. Cells were seeded into microfluidic chambers and grown under continuous flow, and time-lapse phase-contrast microscopy was used to record the cell division time in the presence or absence of B22a.
(§2) Imaging of individual cells was conducted using the CellAsic microfluidic perfusion system (ONIX) with integrated temperature controller and B04A bacterial microfluidic plates (EMD Millipore, Billerica, MA). The CellAsic ONIX FG software (v 5.0.2.0) was used to control flow rate and deliver fresh medium with or without antimicrobial peptide (AMP). The chambers were loaded by perfusion of 50 μl of a 10^6 cells/ml bacterial suspension at 2 lb/in^2 for 15 s to prime the cells followed by 4 lb/in^2 for 15 s to trap the cells. The chamber was then rinsed at 1 lb/in^2 for 30 s followed by 5 lb/in^2 for 5 min. To quickly switch solutions, medium was perfused at 10 lb/in^2 for 10 s, and then flow was reduced to 2 lb/in^2 for the remainder of the imaging.

Escherichia coli IU342 = assay: MIC, broth microdilution; type: cell-based; conditions: CAMHB, 16 to 18 h, at least three independent assays
Method: MICs were determined by using the broth microdilution method based on the general recommendations of the Clinical and Laboratory Standards Institute (CLSI). Bacteria were grown in CAMHB overnight. They were then diluted into fresh medium the following morning and grown to early log phase. The cultures were then diluted to approximately 5 × 10^5 CFU ml^−1, and 100 μl was added to sterile 96-well polypropylene microtiter plates (Corning, NY, USA) preloaded with twofold dilutions of antimicrobial peptides. […] All MIC assays were determined from at least three independent assays.

V. cholerae biofilms = assay: Established biofilm in flow cell, LIVE/DEAD staining
E. coli = assay: Single-cell division time, time-lapse phase-contrast microscopy; type: cell-based, Escherichia coli; conditions: 30 nM, first three generations
Method: as §1, §2

In the case of FRKKLKKLFKKLSPVIPLLKLG [B22], the “Killing of V. cholerae overproducing SodA” value (V. cholerae [1]; 2.5 μM B22) is reported as “completely suppressed”, the “Decrease in survival of V. cholerae overexpressing SodA” value (V. cholerae [1]; 5 μM B22) is reported as 10 fold and the Decrease in survival (V. cholerae [1]; V. cholerae, 2.5 μM B22) is reported as 3 log10 units. For the same substance, the “Increase in survival by preincubation with 75 μM DP and 150 mM TU in combination” value (V. cholerae [1]; V. cholerae, prior to addition of B22) was 13 fold, the “Time to fluorescence burst due to oxidation of CellROX” value (V. cholerae [2]) was no more than 15 s and the “Initial growth of P. aeruginosa relative to control” value (P. aeruginosa) was “significantly reduced”. The CellROX oxidative signal (E. faecalis) was “fluorescent burst”.

With FRKKLKKLFKKLSPVIPLLKLG-NH2 [B22a] the Cell division time (E. cloacae) was “increased twofold”, the MIC (Escherichia coli IU342) was 2 µM and the Overall biofilm biomass (V. cholerae biofilms) was “decreased the overall biomass by half”. The “Cell death in biofilm” value (V. cholerae biofilms; at 6 h) was 50% and the Cell division time (E. coli) was “increased twofold”.
